From patent US12569495B2, “Inhibitors of porcine reproductive and respiratory syndrome virus” (UNIVERSITY OF CONNECTICUT, priority 2020, dated 2026)

Key:
[1] = molecular target: T1, protein-protein interactions (PPI) between CD163-SRCR5 domain and PRRSV GP2a protein (Sus scrofa, UniProt Q2VL90); assay: BiFC assay between SRCR5-VN and GP2a-VC proteins; format: cell-based, porcine CD163; PRRSV; conditions: for inhibitory function in BiFC assay compared with B7: methyl and/or fluoro groups removed from the benzenesulfonamide moiety; for inhibition of CD163-SRCR5/GP2a PPI in the BiFC assay, B7 analogues: HEK293T cells, DMSO as Ctrl, concentration not given
T1 construct: The amplified cDNA fragments of SRCR2 or SRCR5 were subcloned into the pBiFC-VN155(I152L) vector; Myc tag (from vector backbone pMyc-CMV); expressed in transfected cells; host or cells: HEK293T
T1 sequence (Q2VL90 477-577): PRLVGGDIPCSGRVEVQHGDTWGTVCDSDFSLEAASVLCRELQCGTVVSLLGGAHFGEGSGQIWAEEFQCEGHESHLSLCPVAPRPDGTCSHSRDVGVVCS
From the text: The N-terminus and C-terminus of the truncated Venus-I152L were inserted into vector backbone pMyc-CMV and pCMV-HA, constituting commercial plasmids pBiFC-VN155(I152L) and pBiFC-VC155, respectively (Addgene, Watertown, MA, USA). See Kodama and Hu, Biotechniques 49:793-805 (2010). cDNA fragments for the scavenger receptor cysteine-rich domain 2 (SRCR2) and SRCR5 of porcine CD163 receptor, and for PRRSV glycoproteins GP2a and GP4 were amplified by RT-PCR. The amplified cDNA fragments of SRCR2 or SRCR5 were subcloned into the pBiFC-VN155(I152L) vector digested with EcoRI/BglII. For constructions of GP2a and GP4 fusion proteins, cDNA fragments encoding GP2a or GP4 were subcloned into the pBiFC-VC155 vector digested with EcoRI/BglII. All plasmid clones were verified by DNA Sanger sequencing.
HEK293T cells cultured in 12-well plates were transfected with appropriate plasmids for each BiFC assay using FuGENE® 6 (Promega, Madison, WI, USA). After 5 h, various concentrations of chemical compounds were added to the culture media. DMSO was used as the vehicle control. Fluorescence images of treated cells at 24 h after plasmid transfection were captured using an inverted Nikon fluorescence microscope. Fluorescence intensity of treated cells was measured by ImageJ.
Using the previously described BiFC vector based on the fragmented venus protein (VN-155[I152L], hereafter named VN) and (VC-155, hereafter named VC), fusion protein constructs were established between the porcine CD163 protein SRCR5 or SRCR2 domain and VN, and between the PRRSV minor glycoproteins (GP2a or GP4) and VC (FIG. 1A, 2). See Kodama et al., Biotechniques 49(5): 793-805 (2010). These plasmids were co-expressed in HEK293T cells to evaluate the PPIs between the SRCR5 domain and GP2a or GP4.
The BiFC assays was tested to determine whether it could identify small molecules with potential to block the protein-protein interactions between CD163 and PRRSV. A customized virtual screen of a library of commercially available small molecules was performed with the AtomNet® model at a region centered around R561 (FIG. 3) based on the available 3-D protein structure of porcine CD163-SRCR5 domain, and 74 compounds predicted to target this potential binding site were procured. Ma et al., J. Virol. 91(3): e01897-16 (2017). These compounds were tested using the BiFC assay, to evaluate their ability to inhibit the PPI between GP2a and SRCR5. Plasmids were co-transfected in HEK293T cells, 4 h later, compounds were individually administered to cells at 5 μM. Twenty-four hours later, images were taken under a fluorescence microscope and the fluorescence quantified. […] Until these studies, there has been no known biological activity reported for compound B7.

PRRSV strain VR-2332 [2] = assay: PRRSV titration assay of culture media of infected PAMs; format: cell-based; conditions: 15 μM; for log reduction of viral titer: pre- and post-inoculation treatment; for inhibitory function in PRRSV infection assay compared with B7: qRT-PCR and titration (FIG. 7B, 7C)
Method: (§1) For PRRSV infection of PAM cells, PAMs were seeded one day prior to infection. […] Cells were inoculated with VR-2332, SDSU73, NADC30 or Lelystad PRRSV at MOI=0.1 for 1 h. The 24 h cell medium supernatant was stored at −80° C. until use.
For PRRSV titration assay, MARC145 cells were seeded in 48-well plates and grew to ˜80% density before inoculation. Viral supernatants were prepared by 10-fold serial dilution, and 100 μl of the dilutions was added per well in six replicates. Inocula were removed from cells after 2 h and replaced with 0.5 mL of DMEM supplemented with 2% FBS, 2 mM glutamine, 0.1 mM MEM non-essential amino acids, 50 U/mL penicillin, and 50 μg/mL streptomycin (Invitrogen). Cells were cultured at 37° C. for 6 days and any cytopathic effects were observed and recorded. The PRRSV titer was calculated using the Reed and Muench method and expressed as median tissue culture infectious dose (TCID50/mL). Reed and Muench, Am. J. Epidemiol. 27(3): 493-497 (1938).

PRRSV strain VR-2332 [3] = assay: qRT-PCR for PRRSV RNA in infected PAMs; format: cell-based; conditions: 15 μM; VR-2332; 24 h
Method: Total RNA was extracted from PAMs infected with PRRSV using RNeasy Mini Kit (Qiagen, Germantown, MD) according to the manufacturer's instruction. RNA concentrations were measured using a Nanodrop spectrophotometer (Thermo Fisher Scientific). GAPDH was used as a housekeeping gene for gene expression normalization. Data were processed with the software associated with ABI 7500.
as §1

Structure (SMILES)	inhibitory function in BiFC assay compared with B7 [1]	log reduction of viral titer (PRRSV strain VR-2332 [2]; 24 h) [log]	inhibitory function in PRRSV infection assay compared with B7 (PRRSV strain VR-2332 [2])	inhibition of CD163-SRCR5/GP2a PPI in the BiFC assay, B7 analogues [1]	PRRSV RNA level in treated PAMs (qRT-PCR), B7 analogues (PRRSV strain VR-2332 [3])	inhibition of PRRSV infection of PAMs (titration of culture media), B7 analogues (PRRSV strain VR-2332 [2]; 24 h)
O=S(=O)(Nc1nc2ccccc2nc1Nc1ccc(Cl)c(S(=O)(=O)N2CCOCC2)c1)c1ccccc1 [Compound B7-A1, N-[3-(4-chloro-3-morpholin-4-ylsulfonylanilino)quinoxalin-2-yl] benzenesulfonamide]	weakened the compound's inhibitory function	2.2	weakened the compound's inhibitory function			
Cc1ccc(S(=O)(=O)Nc2nc3ccccc3nc2Nc2cccc(S(=O)(=O)N3CCCCC3)c2)cc1 [Compound B7-A4, 4-methyl-N-[3-(3-piperidin-1-ylsulfonylanilino)quinoxalin-2-yl] benzenesulfonamide]		2.8		does not eliminate these compounds' ability to inhibit		
Cc1ccccc1S(=O)(=O)Nc1nc2ccccc2nc1Nc1ccc(S(=O)(=O)N2CCOCC2)cc1 [Compound B7-A2, 2-methyl-N-[3-(4-morpholin-4-ylsulfonylanilino)quinoxalin-2-yl] benzenesulfonamide]	weakened the compound's inhibitory function	2.4	weakened the compound's inhibitory function	does not eliminate these compounds' ability to inhibit		
Cc1ccccc1S(=O)(=O)Nc1nc2ccccc2nc1N1CCOCC1 [Compound B7-A6, 2-methyl-N-(3-morpholin-4-ylquinoxalin-2-yl) benzenesulfonamide]				completely blocked their ability to inhibit		
O=S(=O)(Nc1nc2ccccc2nc1Nc1cccc(S(=O)(=O)N2CCOCC2)c1)c1ccccc1 [Compound B7-A3, N-[3-(3-morpholin-4-ylsulfonylanilino)quinoxalin-2-yl] benzenesulfonamide]	weakened the compound's inhibitory function	1.2	weakened the compound's inhibitory function			
Cc1ccc(S(=O)(=O)Nc2nc3ccccc3nc2N2CCOCC2)cc1 [Compound B7-A5, 4-methyl-N-(3-morpholinoquinoxalin-2-yl)benzenesulfonamide]				completely blocked their ability to inhibit	failed to inhibit PRRSV RNA level	
Nc1cccc(S(=O)(=O)N2CCOCC2)c1 [Compound B7-A7, 3-(morpholinosulfonyl)aniline]						none of these 2 compounds inhibited PRRSV infection of PAMs
